Measurements reported in PubChem BioAssay AID256 (DTP/NCI, 2004).
Several values for one entry are separate records, joined by “and”; a condition that tells them apart may be missing. Identical values can stand only once. Inconclusive results and toxic doses are left out. How the source made its calls: active means survival T/C of 150% or more; inactive means T/C below 125% in these data.

Tested on: CD2F1 mice, L1210 leukemia ip, survival T/C
Experiment: NCI In Vivo Anticancer Drug Screen. Data for tumor model L1210 Leukemia (intraperitoneal) in CD2F1 (CDF1) mice
Details: higher = longer survival
Method in brief: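 Ratio T/C, where T is the treated-group value and C the vehicle-dosed control value, from mice implanted with a transplantable tumor.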

[1] = endpoint: mean survival time, dose: 50.0 mg/kg/injection, schedule: Q01DX009 (ip), vehicle: saline with Tween-80
[2] = endpoint: mean survival time, dose: 100.0 mg/kg/injection, schedule: Q01DX009 (ip), vehicle: saline with Tween-80
[3] = endpoint: mean survival time, dose: 100.0 mg/kg/injection, schedule: Q04DX003 (ip), vehicle: saline with Tween-80
[4] = endpoint: mean survival time, dose: 200.0 mg/kg/injection, schedule: Q04DX003 (ip), vehicle: saline with Tween-80
[5] = endpoint: mean survival time, dose: 100.0 mg/kg/injection, schedule: Q01DX001 (ip), vehicle: saline with Tween-80
[6] = endpoint: mean survival time, dose: 200.0 mg/kg/injection, schedule: Q01DX001 (ip), vehicle: saline with Tween-80
[7] = endpoint: mean survival time, dose: 400.0 mg/kg/injection, schedule: Q01DX001 (ip), vehicle: saline with Tween-80
[8] = endpoint: mean survival time, dose: 25.0 mg/kg/injection, schedule: Q04DX003 (ip), vehicle: saline with Tween-80
[9] = endpoint: mean survival time, dose: 50.0 mg/kg/injection, schedule: Q04DX003 (ip), vehicle: saline with Tween-80
[10] = endpoint: mean survival time, dose: 400.0 mg/kg/injection, schedule: Q04DX003 (ip), vehicle: saline with Tween-80
[11] = endpoint: mean survival time, dose: 200.0 mg/kg/injection, schedule: Q01DX009 (ip), vehicle: saline with Tween-80

Measured: T/C

CCNC(=O)OCc1cn2c(c1COC(=O)NCC)CCC2
inactive: endpoint: mean survival time, dose: 0.78 mg/kg/injection, schedule: Q04DX003 (ip), vehicle: other 101 % of control | endpoint: mean survival time, dose: 1.56 mg/kg/injection, schedule: Q04DX003 (ip), vehicle: other 87 % of control | endpoint: mean survival time, dose: 3.13 mg/kg/injection, schedule: Q04DX003 (ip), vehicle: other 92 % of control | endpoint: mean survival time, dose: 6.25 mg/kg/injection, schedule: Q04DX003 (ip), vehicle: other 92 % of control | endpoint: mean survival time, dose: 12.5 mg/kg/injection, schedule: Q04DX003 (ip), vehicle: other 97 % of control

O=C(CC(O)(C(F)(F)F)C(F)(F)F)c1ccco1
inactive: [1] 116 % of control | [2] 110 % of control | [3] 105 % of control | [4] 100 % of control

COC(=O)Nc1ccccc1OS(=O)(=O)N(C)C
inactive: endpoint: mean survival time, dose: 25.0 mg/kg/injection, schedule: Q01DX009 (ip), vehicle: saline with Tween-80 95 % of control | [1] 104 % of control | [2] 96 % of control and 103 % of control

O=S(=O)(c1ccc(Br)cc1)c1ccc(Br)cc1
inactive: [5] 112 % of control | [6] 102 % of control | [7] 97 % of control

c1ccc(CCc2ccccc2)cc1
inactive: [8] 100 % of control | [9] 103 % of control | [5] 100 % of control | [3] 104 % of control and 105 % of control | [6] 103 % of control | [4] 101 % of control | [7] 91 % of control | [10] 107 % of control

COc1ccc(P(=S)(S)c2ccc(OC)cc2)cc1
inactive: endpoint: mean survival time, dose: 80.5 mg/kg/injection, schedule: Q01DX009 (ip), vehicle: saline with Tween-80 95 % of control | endpoint: mean survival time, dose: 161.0 mg/kg/injection, schedule: Q01DX009 (ip), vehicle: saline with Tween-80 93 % of control | endpoint: mean survival time, dose: 322.0 mg/kg/injection, schedule: Q01DX009 (ip), vehicle: saline with Tween-80 93 % of control

CCOC(=O)c1ccc(N2C(=O)C=CC2=O)cc1
inactive: endpoint: mean survival time, dose: 12.5 mg/kg/injection, schedule: Q01DX009 (ip), vehicle: saline 97 % of control

CC/C=C(\CC)C(=O)O
inactive: [1] 109 % of control | [2] 105 % of control | [11] 105 % of control

C/C=C1\C(=O)O[C@@]23C=C[C@H]4C(C(=O)OC)=CO[C@@H](O[C@H]12)[C@H]43
inactive: endpoint: mean survival time, dose: 50.0 mg/kg/injection, schedule: Q01DX001 (ip), vehicle: saline 95 % of control

Cc1cc(CC(O)(C(F)(F)F)C(F)(F)F)cc(C(=O)O)n1
inactive: [3] 98 % of control | [4] 107 % of control | [10] 87 % of control

Cn1c(CC(O)(C(F)(F)Cl)C(F)(F)Cl)cc(=O)n1-c1ccccc1
inactive: [9] 101 % of control | [2] 97 % of control | [3] 97 % of control | [11] 97 % of control | [4] 97 % of control | [10] 92 % of control

N#CCS(=O)(=O)c1cccc[n+]1[O-]
inactive: endpoint: median survival time, dose: 25.0 mg/kg/injection, schedule: Q01DX009 (ip), vehicle: saline with Tween-80 97 % of control | endpoint: median survival time, dose: 50.0 mg/kg/injection, schedule: Q01DX009 (ip), vehicle: saline with Tween-80 98 % of control | endpoint: median survival time, dose: 100.0 mg/kg/injection, schedule: Q01DX009 (ip), vehicle: saline with Tween-80 98 % of control | endpoint: median survival time, dose: 200.0 mg/kg/injection, schedule: Q01DX009 (ip), vehicle: saline with Tween-80 107 % of control | endpoint: median survival time, dose: 400.0 mg/kg/injection, schedule: Q01DX009 (ip), vehicle: saline with Tween-80 116 % of control

Cc1ccc(/C(=N\Nc2ccc([N+](=O)[O-])cc2[N+](=O)[O-])C2CC2c2ccccc2)cc1 (stereo not given)
inactive: endpoint: mean survival time, dose: 50.0 mg/kg/injection, schedule: Q04DX002 (ip), vehicle: saline with Tween-80 91 % of control | endpoint: mean survival time, dose: 100.0 mg/kg/injection, schedule: Q04DX002 (ip), vehicle: saline with Tween-80 105 % of control | endpoint: mean survival time, dose: 200.0 mg/kg/injection, schedule: Q04DX002 (ip), vehicle: saline with Tween-80 91 % of control

N#[N+]c1c([O-])[nH]c2ccccc12
inactive: endpoint: median survival time, dose: 50.0 mg/kg/injection, schedule: Q04DX002 (ip), vehicle: saline with Tween-80 110 % of control | endpoint: median survival time, dose: 100.0 mg/kg/injection, schedule: Q04DX002 (ip), vehicle: saline with Tween-80 110 % of control | endpoint: median survival time, dose: 200.0 mg/kg/injection, schedule: Q04DX002 (ip), vehicle: saline with Tween-80 120 % of control

CC(=O)Nc1ccc(OC(C)=O)cc1
inactive: [8] 97 % of control | [9] 97 % of control | [3] 101 % of control

O=C(O)C1CCC(C(=O)O)CC1 (stereo not given)
inactive: [2] 95 % of control | [11] 91 % of control | endpoint: mean survival time, dose: 400.0 mg/kg/injection, schedule: Q01DX009 (ip), vehicle: saline with Tween-80 87 % of control

COC12C(COC(=O)NCCO)C3=C(C(=O)C(C)=C(N)C3=O)N1CC1NC12 (stereo not given)
inactive: endpoint: mean survival time, dose: 1.56 mg/kg/injection, schedule: Q01DX009 (ip), vehicle: Klucel (hydroxypropylcellulose) (HPC) 112 % of control | endpoint: mean survival time, dose: 3.12 mg/kg/injection, schedule: Q01DX009 (ip), vehicle: Klucel (hydroxypropylcellulose) (HPC) 114 % of control and 106 % of control | endpoint: mean survival time, dose: 6.25 mg/kg/injection, schedule: Q01DX009 (ip), vehicle: Klucel (hydroxypropylcellulose) (HPC) 115 % of control and 120 % of control | endpoint: mean survival time, dose: 12.5 mg/kg/injection, schedule: Q01DX009 (ip), vehicle: Klucel (hydroxypropylcellulose) (HPC) 115 % of control | endpoint: mean survival time, dose: 50.0 mg/kg/injection, schedule: Q01DX009 (ip), vehicle: Klucel (hydroxypropylcellulose) (HPC) 114 % of control | endpoint: mean survival time, dose: 222.0 mg/kg/injection, schedule: Q01DX001 (ip), vehicle: carboxymethylcellulose (CMC) 89 % of control

COC1=C(C)C(=O)c2c(c(COC(N)=O)c3n2CC2C3N2C)C1=O (stereo not given)
inactive: endpoint: mean survival time, dose: 2.25 mg/kg/injection, schedule: Q01DX001 (ip), vehicle: acetone 103 % of control | endpoint: mean survival time, dose: 2.9 mg/kg/injection, schedule: Q01DX001 (ip), vehicle: acetone 102 % of control | endpoint: mean survival time, dose: 4.5 mg/kg/injection, schedule: Q01DX001 (ip), vehicle: acetone 110 % of control | endpoint: mean survival time, dose: 6.75 mg/kg/injection, schedule: Q01DX001 (ip), vehicle: acetone 118 % of control | endpoint: mean survival time, dose: 6.75 mg/kg/injection, schedule: Q01DX001 (ip), vehicle: saline 112 % of control

C(=NCCN1CCOCC1)=NC1CCCCC1
inactive: endpoint: mean survival time, dose: 3.13 mg/kg/injection, schedule: Q01DX009 (ip), vehicle: saline with Tween-80 102 % of control | endpoint: mean survival time, dose: 6.25 mg/kg/injection, schedule: Q01DX009 (ip), vehicle: saline with Tween-80 91 % of control | endpoint: mean survival time, dose: 6.25 mg/kg/injection, schedule: Q04DX003 (ip), vehicle: saline with Tween-80 100 % of control | endpoint: mean survival time, dose: 12.5 mg/kg/injection, schedule: Q01DX009 (ip), vehicle: saline with Tween-80 104 % of control | endpoint: mean survival time, dose: 12.5 mg/kg/injection, schedule: Q04DX003 (ip), vehicle: saline with Tween-80 92 % of control

Cc1ccc(NS(=O)(=O)c2cccc([N+](=O)[O-])c2)cc1Cl
inactive: [3] 92 % of control | [4] 97 % of control | [10] 92 % of control

CC1(C)CC(O)CC(C)(C)N1O
inactive: [1] 102 % of control | [2] 103 % of control | endpoint: mean survival time, dose: 100.0 mg/kg/injection, schedule: Q04DX003 (ip), vehicle: saline 97 % of control | [11] 96 % of control | endpoint: mean survival time, dose: 200.0 mg/kg/injection, schedule: Q04DX003 (ip), vehicle: saline 94 % of control | endpoint: mean survival time, dose: 400.0 mg/kg/injection, schedule: Q04DX003 (ip), vehicle: saline 97 % of control

Cc1ccc(S(=O)(=O)NCCN(CCNS(=O)(=O)c2ccc(C)cc2)S(=O)(=O)c2ccc(C)cc2)cc1
inactive: endpoint: mean survival time, dose: 12.5 mg/kg/injection, schedule: Q01DX009 (ip), vehicle: other 88 % of control | endpoint: mean survival time, dose: 25.0 mg/kg/injection, schedule: Q01DX009 (ip), vehicle: other 86 % of control | endpoint: mean survival time, dose: 50.0 mg/kg/injection, schedule: Q01DX009 (ip), vehicle: other 86 % of control | endpoint: mean survival time, dose: 100.0 mg/kg/injection, schedule: Q01DX009 (ip), vehicle: other 92 % of control | endpoint: mean survival time, dose: 200.0 mg/kg/injection, schedule: Q01DX009 (ip), vehicle: other 105 % of control

C1CCC2C[N-]CCC2C1.C1CCC2C[N-]CCC2C1.C1CCC2C[N-]CCC2C1.C1CCC2C[N-]CCC2C1.[I][Fe][I] (stereo not given)
inactive: [3] 108 % of control | [4] 106 % of control

O=C(Nc1ccccc1F)c1cccc(Cl)c1
inactive: endpoint: mean survival time, dose: 100.0 mg/kg/injection, schedule: Q01DX009 (ip), vehicle: saline + alcohol 94 % of control | endpoint: mean survival time, dose: 100.0 mg/kg/injection, schedule: Q04DX003 (ip), vehicle: saline + alcohol 95 % of control | endpoint: mean survival time, dose: 200.0 mg/kg/injection, schedule: Q01DX009 (ip), vehicle: saline + alcohol 94 % of control | endpoint: mean survival time, dose: 200.0 mg/kg/injection, schedule: Q04DX003 (ip), vehicle: saline + alcohol 95 % of control | endpoint: mean survival time, dose: 400.0 mg/kg/injection, schedule: Q01DX009 (ip), vehicle: saline + alcohol 94 % of control | endpoint: mean survival time, dose: 400.0 mg/kg/injection, schedule: Q04DX003 (ip), vehicle: saline + alcohol 94 % of control
